# According to ChEMBL document CHEMBL1201862, “PubChem BioAssay data set” (2004):
# Active and inactive are the calls of the source.
# What was measured:
# CAAX prenyl protease 2 [1] = biological target: CAAX prenyl protease 2 (Homo sapiens, UniProt Q9Y256); assay: inhibition of Ras-converting CAAX protease Rce1 – biochemical, yeast membranes, quenched-peptide fluorescence, cherry-pick, dose response (AID 588849)
# CAAX prenyl protease 2 [2] = biological target: CAAX prenyl protease 2 (Saccharomyces cerevisiae S288c, UniProt Q03530); format: biochemical
# Trypsin = Trypsin (Sus scrofa, UniProt P00761); assay: trypsin protease activity blockade – biochemical, quenched peptide fluorescence, cherry-pick, selectivity assay for Rce1 protease inhibitor project, dose response (AID 488789)
# Cytochrome P450 2C9 = Cytochrome P450 2C9 (Homo sapiens, UniProt P11712)
# Beta-galactosidase = Beta-galactosidase (Escherichia coli, UniProt Q8VNN2); assay: PubChem AID 485352; format: functional
# [3] = biological target: T1, Type-1 angiotensin II receptor (Homo sapiens, UniProt P30556); assay: antagonism of angiotensin II type 1 receptor – cell-based, uHTS hits, selectivity assay for APJ receptor antagonist project, dose response (AID 463214); format: functional;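 further: antagonist potency against angiotensin II stimulated AT1 response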
# T1 sequence (P30556 whole entry): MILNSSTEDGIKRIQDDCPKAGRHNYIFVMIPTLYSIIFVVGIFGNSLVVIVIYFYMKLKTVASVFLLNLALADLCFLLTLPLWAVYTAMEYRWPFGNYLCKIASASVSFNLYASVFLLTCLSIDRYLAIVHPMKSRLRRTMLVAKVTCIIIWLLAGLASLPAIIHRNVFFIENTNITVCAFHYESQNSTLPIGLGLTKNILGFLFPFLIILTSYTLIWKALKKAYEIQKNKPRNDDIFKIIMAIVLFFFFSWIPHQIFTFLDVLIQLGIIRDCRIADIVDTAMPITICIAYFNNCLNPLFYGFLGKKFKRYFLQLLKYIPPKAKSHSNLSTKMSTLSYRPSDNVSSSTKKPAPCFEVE
# [4] = biological target: T2, Nuclear receptor subfamily 0 group B member 1 (Homo sapiens, UniProt P51843); assay: Luminescence-based cell-based high throughput dose response assay for inhibitors of the orphan nuclear receptor subfamily 0, group B, member 1 (DAX1; NR0B1). [Related pubchem assays (depositor defined):AID504766, AID504790]; format: functional
# T2 sequence (P51843 whole entry): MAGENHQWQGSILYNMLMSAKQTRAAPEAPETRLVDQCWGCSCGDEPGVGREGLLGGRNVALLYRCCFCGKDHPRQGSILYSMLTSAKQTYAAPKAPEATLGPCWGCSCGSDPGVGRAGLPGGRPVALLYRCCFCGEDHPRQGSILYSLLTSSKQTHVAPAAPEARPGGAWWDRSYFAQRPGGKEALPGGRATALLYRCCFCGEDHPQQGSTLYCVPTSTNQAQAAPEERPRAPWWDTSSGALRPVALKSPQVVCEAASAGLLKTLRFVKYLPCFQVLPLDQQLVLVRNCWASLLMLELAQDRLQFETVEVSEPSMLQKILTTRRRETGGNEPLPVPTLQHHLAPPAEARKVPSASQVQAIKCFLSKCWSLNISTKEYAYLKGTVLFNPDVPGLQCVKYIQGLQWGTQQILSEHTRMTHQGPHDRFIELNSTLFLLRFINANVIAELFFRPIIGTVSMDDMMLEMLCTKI
# HEK293 = assay: cells; format: functional, cell-based; conditions: Homo sapiens
# Escherichia coli = assay: microbe, parasite or virus in culture
# [5] = biological target: Voltage-gated inwardly rectifying potassium channel KCNH2 (Homo sapiens, UniProt Q12809); conditions: Potency;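 further: confirmatory quantitative high-throughput screen measuring inhibition of hERG channel activity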
# Cytochrome P450 1A2 = biological target: T3, Cytochrome P450 1A2 (Homo sapiens, UniProt P05177);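 further: PubChem cytochrome P450 panel assay, CYP1A2 panel member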
# T3 sequence (P05177 whole entry): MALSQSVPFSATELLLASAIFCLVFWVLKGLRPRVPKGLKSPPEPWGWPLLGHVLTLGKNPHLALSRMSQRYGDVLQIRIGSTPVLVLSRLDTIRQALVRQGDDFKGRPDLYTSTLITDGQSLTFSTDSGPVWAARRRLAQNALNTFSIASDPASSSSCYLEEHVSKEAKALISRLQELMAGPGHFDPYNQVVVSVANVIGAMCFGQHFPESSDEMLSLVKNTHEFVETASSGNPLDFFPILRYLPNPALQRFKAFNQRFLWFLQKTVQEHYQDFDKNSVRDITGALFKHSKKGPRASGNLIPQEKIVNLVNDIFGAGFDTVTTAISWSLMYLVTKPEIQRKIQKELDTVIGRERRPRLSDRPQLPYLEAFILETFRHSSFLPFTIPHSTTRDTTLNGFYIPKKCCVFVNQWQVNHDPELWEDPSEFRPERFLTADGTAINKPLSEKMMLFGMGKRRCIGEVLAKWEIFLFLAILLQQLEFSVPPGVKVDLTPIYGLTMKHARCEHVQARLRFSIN
# [6] = biological target: Oxysterols receptor LXR-beta (Homo sapiens, UniProt P55055); format: functional, cell-based;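 further: Cell-based luminescence dose-response assay of agonist activity at LXR, run as a confirmatory counterscreen to a daf-12 agonist screen; HEK293 cells with Gal4-LXR fusion and GAL4-driven luciferase reporter; agonist potency from rising luciferase signal of a Gal4-LXR reporter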
# [7] = biological target: T4, Corticotropin-releasing factor receptor 2/Corticotropin-releasing factor-binding protein (Homo sapiens, UniProt P24387+Q13324); assay: activators of CRF receptor 2 with binding protein – uHTS hits, confirmation (AID 602473); format: functional; conditions: read-out: EC50_Mean
# T4 sequence (Q13324 whole entry): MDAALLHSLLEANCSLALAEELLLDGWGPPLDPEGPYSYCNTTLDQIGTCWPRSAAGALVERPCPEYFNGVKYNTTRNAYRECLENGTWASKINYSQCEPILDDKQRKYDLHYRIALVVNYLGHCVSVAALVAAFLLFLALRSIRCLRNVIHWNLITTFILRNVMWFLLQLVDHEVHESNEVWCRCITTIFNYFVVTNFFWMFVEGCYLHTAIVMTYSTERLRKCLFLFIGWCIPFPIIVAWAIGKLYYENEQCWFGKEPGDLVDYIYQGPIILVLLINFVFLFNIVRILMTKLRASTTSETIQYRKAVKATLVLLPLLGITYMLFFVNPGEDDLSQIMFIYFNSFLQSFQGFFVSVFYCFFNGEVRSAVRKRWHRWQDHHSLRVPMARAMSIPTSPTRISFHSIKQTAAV
# T4 sequence (P24387 whole entry): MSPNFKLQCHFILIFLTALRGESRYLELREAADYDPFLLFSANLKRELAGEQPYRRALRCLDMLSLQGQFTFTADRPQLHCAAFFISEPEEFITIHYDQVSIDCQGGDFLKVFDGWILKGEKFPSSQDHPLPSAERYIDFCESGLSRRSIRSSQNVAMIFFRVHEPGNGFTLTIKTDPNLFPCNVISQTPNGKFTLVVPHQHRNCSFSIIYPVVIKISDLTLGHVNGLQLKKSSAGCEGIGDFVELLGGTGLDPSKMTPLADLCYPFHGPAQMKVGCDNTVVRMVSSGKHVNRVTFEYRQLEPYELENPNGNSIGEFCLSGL
# [8] = biological target: T5, RNA-binding protein pos-1 (Caenorhabditis elegans, UniProt G5EF15); assay: disruptors of C. elegans POS-1 RNA interaction – biochemical, fluorescence polarization, dose response (AID 1964);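 further: purified POS-1 fused to maltose binding protein made in E. coli; potency of compounds blocking POS-1 binding to fluorescent RNA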
# T5 sequence (G5EF15 whole entry): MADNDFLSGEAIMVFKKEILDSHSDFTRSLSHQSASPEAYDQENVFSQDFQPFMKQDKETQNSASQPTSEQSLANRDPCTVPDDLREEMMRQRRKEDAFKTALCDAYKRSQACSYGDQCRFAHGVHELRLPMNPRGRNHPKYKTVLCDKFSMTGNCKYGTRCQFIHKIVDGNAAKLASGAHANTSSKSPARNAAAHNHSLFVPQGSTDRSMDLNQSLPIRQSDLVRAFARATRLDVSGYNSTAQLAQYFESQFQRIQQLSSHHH
# CHO = CHO cell viability loss, potency – luminescence, cytotoxicity control for TLR9-MyD88 binding inhibitor project, dose response (AID 588339); format: functional, cell-based, hamster; conditions: Cricetulus griseus;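 further: CHO cells stably coexpressing TLR9 and MyD88 fusions from primary screen; compound exposure lasted 48 hours before viability readout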
# [9] = biological target: T6, Zinc finger protein mex-5 (Caenorhabditis elegans, UniProt Q9XUB2); assay: potency of MEX-5 RNA-binding blockers – biochemical, C. elegans, fluorescence polarization, dose response (AID 1960)
# T6 sequence (Q9XUB2 whole entry): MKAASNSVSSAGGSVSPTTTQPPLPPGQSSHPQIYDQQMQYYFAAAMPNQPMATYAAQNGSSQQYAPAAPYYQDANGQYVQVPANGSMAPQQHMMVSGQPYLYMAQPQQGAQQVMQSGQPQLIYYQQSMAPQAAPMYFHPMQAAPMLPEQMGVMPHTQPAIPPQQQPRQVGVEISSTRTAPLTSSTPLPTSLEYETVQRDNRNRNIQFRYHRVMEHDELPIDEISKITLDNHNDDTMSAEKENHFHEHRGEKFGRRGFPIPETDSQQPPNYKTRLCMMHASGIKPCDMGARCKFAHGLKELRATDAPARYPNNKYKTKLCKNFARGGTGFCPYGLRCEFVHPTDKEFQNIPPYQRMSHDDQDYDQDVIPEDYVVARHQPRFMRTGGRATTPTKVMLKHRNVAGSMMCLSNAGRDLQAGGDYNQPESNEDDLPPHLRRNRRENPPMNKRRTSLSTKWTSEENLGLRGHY
# Beta Lactamase = Beta Lactamase (Pseudomonas aeruginosa, UniProt Q932Y6); assay: BLA reporter interference, concentration series – BLA reporter cells, FRET fluorescence, artefact control for TLR9-MyD88 binding inhibitor project, dose response (AID 588341); format: cell-based;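 further: cell based assay in CHO-K1 cells stably expressing beta-lactamase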
# [10] = test system: Streptococcus sp. 'group A'; assay: Streptococcus pyogenes SK(-)GAS viability under kanamycin – luminescence, BacTiterGlo, confirmation, counter-screen for streptokinase expression inhibitor project, dose response (AID 1900); format: functional, organism-based
# INS1 = assay: INS-1E survival protection against cytokine death – cell-based, luminescence, retest, dose response (AID 449756); format: functional; conditions: Rattus norvegicus;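 further: cell death triggered by IL-1 beta plus TNF-alpha plus IFN-gamma mixture; protective hits raise ATP signal compared with cytokine alone wells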
# [11] = NIH-3T3 fibroblast cytotoxicity, dose response, cytotoxicity control, cell-based, fluorescence, Alamar Blue, secondary assay (AID 2327); format: functional;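 further: NIH-3T3 mouse fibroblasts cultured with fluconazole at 8 µg/mL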
# [12] = fluconazole-exposed Candida albicans growth modulators – fluorescence, retest, confirmation (AID 2467); format: functional, cell-based
# [13] = NIH3T3 cell viability loss – ATP luminescence, mouse fibroblasts, counter-screen, dose response (AID 2010); format: functional, cell-based;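 further: cells exposed to compound for about 90 hours before reading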
# [14] = Trypanosoma cruzi growth suppression in host cells – NIH3T3 host cells, beta-gal luminescence, confirmation (AID 2044); format: functional, cell-based;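 further: intracellular parasites grown in NIH/3T3 mouse fibroblasts as host cells; luminescent beta-galactosidase reporter signal from transgenic T. cruzi replicating inside host cells; inhibitors lower the luminescence signal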
# [15] = biological target: ATP-dependent molecular chaperone HSP82 (Candida albicans (strain WO-1) (Yeast), UniProt C4YTQ8); assay: steroid-induced GRE reporter decrease in yeast – S. cerevisiae, luminescence, Hsp90 inhibitor project, dose response (AID 2400); format: functional, cell-based;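 further: beta-galactosidase luminescence from glucocorticoid response element reporter as proxy for Hsp90 function; inhibitor potency where signal loss means Hsp90 inhibition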
# [16] = biological target: Serine/threonine-protein phosphatase (Candida dubliniensis (strain CD36 / CBS 7987 / NCPF 3949 / NRRLY-17841) (Yeast), UniProt B9W6M3); assay: blockers of CaCl2-induced CDRE-lacZ signaling – S. cerevisiae, luminescence, secondary, dose response (AID 2388); format: functional, cell-based;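 further: yeast reporter cells carrying a calcineurin-responsive lacZ construct stimulated with calcium chloride; luminescent beta-galactosidase reporter signal in whole cells rather than isolated phosphatase activity; potency for inhibition where a drop in reporter signal means calcineurin blockade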
# Streptococcus = assay: GAS UMAA2166 growth inhibition – luminescence, BacTiterGlo, counter-screen for streptokinase expression inhibitor project, dose response (AID 1915); format: functional, organism-based;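 further: potency for reduction of bacterial viability or growth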
# Streptokinase A = biological target: T7, Streptokinase A (Streptococcus pyogenes serotype M1, UniProt P10520); assay: viability-normalized secreted streptokinase activity reduction – plasminogen activation absorbance, OD405, dose response (AID 1914); format: functional, Streptococcus pyogenes M1 GAS;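 further: secreted streptokinase activity via plasminogen activation per viability signal from cell pellet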
# T7 sequence (P10520 whole entry): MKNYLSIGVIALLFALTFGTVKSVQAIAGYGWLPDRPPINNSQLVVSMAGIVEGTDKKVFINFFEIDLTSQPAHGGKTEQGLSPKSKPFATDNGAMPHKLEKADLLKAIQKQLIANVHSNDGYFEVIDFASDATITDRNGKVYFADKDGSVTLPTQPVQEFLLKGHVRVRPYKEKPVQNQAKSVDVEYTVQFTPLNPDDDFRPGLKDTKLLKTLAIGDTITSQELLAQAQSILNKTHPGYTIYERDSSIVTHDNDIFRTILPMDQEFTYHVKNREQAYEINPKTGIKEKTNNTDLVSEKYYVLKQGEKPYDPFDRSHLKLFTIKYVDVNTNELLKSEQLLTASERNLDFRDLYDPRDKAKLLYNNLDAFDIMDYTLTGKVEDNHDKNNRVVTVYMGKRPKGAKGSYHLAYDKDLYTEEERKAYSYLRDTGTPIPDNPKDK
# Sequence of Voltage-gated inwardly rectifying potassium channel KCNH2 (Q12809 whole entry): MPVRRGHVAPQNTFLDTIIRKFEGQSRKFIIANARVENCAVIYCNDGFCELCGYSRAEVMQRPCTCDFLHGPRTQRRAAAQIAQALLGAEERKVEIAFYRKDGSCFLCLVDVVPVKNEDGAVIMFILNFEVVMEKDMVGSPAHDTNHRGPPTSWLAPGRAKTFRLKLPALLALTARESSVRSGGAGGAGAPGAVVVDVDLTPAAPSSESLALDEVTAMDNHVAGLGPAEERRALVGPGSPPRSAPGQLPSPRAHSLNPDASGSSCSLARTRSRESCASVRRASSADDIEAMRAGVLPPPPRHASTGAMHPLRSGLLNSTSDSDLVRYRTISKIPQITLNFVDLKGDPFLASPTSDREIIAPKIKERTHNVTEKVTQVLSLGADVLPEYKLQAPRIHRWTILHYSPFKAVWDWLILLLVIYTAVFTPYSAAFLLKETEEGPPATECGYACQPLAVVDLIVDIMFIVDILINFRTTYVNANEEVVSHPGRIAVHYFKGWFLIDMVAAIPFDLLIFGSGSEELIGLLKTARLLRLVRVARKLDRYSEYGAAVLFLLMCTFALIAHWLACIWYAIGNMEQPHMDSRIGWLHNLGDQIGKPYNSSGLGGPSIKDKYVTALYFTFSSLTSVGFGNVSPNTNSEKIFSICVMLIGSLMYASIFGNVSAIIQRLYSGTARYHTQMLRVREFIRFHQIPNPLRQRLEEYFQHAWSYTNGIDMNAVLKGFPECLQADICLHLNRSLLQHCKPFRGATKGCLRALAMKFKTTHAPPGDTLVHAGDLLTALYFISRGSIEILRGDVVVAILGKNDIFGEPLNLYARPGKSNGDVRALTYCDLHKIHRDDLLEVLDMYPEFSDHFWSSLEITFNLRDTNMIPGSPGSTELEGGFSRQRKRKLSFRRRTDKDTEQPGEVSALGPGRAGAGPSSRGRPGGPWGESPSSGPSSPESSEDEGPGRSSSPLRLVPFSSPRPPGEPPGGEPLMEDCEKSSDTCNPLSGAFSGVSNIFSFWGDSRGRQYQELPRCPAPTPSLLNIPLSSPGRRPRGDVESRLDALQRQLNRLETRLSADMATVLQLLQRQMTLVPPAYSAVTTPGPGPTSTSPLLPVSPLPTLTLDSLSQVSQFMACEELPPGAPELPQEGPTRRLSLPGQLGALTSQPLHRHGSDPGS
# Sequence of Beta-galactosidase (Q8VNN2 whole entry): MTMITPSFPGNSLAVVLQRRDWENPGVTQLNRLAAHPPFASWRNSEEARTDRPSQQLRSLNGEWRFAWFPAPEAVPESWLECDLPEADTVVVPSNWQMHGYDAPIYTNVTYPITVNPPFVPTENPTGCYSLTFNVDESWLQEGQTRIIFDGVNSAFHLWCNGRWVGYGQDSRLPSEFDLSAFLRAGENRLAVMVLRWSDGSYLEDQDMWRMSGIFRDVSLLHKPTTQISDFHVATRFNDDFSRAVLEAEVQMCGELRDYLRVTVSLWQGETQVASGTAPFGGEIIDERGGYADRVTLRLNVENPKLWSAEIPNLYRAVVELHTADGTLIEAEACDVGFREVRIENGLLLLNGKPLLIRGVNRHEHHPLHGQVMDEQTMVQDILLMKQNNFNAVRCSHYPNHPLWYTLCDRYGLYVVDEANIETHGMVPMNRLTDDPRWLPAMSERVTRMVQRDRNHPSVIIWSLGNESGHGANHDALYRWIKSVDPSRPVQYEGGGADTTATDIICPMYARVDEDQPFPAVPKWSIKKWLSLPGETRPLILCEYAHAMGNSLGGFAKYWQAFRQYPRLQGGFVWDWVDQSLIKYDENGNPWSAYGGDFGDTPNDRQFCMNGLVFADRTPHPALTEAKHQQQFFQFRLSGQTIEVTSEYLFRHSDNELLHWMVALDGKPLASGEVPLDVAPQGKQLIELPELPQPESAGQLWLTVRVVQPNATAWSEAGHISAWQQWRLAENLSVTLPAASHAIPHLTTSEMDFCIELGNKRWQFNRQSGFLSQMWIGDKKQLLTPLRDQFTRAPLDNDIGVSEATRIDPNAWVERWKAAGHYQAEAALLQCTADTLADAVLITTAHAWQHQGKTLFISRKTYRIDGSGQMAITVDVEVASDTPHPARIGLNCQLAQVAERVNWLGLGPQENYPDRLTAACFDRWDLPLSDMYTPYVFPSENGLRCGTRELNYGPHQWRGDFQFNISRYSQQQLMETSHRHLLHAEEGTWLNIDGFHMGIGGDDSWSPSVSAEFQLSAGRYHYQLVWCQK
# Sequence of CAAX prenyl protease 2 (Homo sapiens, UniProt Q9Y256) (Q9Y256 whole entry): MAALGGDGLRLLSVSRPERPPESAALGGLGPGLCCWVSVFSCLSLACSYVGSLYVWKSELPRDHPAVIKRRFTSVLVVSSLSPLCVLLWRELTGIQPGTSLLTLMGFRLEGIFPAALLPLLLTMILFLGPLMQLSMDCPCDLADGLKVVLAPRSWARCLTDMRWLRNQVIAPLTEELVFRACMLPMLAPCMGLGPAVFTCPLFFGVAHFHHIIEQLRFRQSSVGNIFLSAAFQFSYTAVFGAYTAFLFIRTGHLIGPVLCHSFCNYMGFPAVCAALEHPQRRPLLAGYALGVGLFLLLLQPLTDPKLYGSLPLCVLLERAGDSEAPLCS
# Sequence of Cytochrome P450 2C9 (P11712 whole entry): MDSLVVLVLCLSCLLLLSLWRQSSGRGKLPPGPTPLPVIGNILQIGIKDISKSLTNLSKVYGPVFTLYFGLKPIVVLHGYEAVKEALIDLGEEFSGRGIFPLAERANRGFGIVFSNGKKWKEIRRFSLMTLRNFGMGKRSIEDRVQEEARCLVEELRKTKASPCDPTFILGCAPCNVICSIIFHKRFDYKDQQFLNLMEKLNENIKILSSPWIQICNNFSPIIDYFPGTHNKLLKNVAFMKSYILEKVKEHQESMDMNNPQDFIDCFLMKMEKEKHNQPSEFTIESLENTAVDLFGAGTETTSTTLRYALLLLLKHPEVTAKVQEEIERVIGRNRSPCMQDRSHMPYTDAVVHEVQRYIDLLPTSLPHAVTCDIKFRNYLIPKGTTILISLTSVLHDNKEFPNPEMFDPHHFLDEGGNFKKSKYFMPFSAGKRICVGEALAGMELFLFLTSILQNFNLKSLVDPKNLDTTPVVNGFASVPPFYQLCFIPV
# Sequence of CAAX prenyl protease 2 (Saccharomyces cerevisiae S288c, UniProt Q03530) (Q03530 whole entry): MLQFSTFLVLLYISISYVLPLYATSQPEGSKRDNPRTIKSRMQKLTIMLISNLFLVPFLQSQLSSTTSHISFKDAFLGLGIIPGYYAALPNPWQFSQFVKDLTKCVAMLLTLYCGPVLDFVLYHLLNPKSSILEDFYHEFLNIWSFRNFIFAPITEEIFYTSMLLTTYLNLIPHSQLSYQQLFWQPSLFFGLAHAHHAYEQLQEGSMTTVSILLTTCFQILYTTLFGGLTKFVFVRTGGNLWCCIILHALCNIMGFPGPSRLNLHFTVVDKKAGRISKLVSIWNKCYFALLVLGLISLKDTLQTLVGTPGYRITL
# Sequence of Oxysterols receptor LXR-beta (P55055 whole entry, the tested form may be a part): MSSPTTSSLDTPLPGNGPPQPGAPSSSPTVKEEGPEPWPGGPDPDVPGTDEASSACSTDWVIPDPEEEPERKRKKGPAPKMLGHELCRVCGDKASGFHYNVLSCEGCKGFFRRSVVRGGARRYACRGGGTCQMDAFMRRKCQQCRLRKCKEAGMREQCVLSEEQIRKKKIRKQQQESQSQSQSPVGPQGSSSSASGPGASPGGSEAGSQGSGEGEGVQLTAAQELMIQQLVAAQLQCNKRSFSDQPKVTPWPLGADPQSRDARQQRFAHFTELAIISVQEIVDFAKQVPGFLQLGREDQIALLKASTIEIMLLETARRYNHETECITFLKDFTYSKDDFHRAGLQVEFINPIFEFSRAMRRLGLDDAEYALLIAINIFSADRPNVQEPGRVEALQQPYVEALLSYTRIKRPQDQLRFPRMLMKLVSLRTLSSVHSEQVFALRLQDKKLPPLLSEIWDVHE
# Sequence of Serine/threonine-protein phosphatase (B9W6M3 whole entry): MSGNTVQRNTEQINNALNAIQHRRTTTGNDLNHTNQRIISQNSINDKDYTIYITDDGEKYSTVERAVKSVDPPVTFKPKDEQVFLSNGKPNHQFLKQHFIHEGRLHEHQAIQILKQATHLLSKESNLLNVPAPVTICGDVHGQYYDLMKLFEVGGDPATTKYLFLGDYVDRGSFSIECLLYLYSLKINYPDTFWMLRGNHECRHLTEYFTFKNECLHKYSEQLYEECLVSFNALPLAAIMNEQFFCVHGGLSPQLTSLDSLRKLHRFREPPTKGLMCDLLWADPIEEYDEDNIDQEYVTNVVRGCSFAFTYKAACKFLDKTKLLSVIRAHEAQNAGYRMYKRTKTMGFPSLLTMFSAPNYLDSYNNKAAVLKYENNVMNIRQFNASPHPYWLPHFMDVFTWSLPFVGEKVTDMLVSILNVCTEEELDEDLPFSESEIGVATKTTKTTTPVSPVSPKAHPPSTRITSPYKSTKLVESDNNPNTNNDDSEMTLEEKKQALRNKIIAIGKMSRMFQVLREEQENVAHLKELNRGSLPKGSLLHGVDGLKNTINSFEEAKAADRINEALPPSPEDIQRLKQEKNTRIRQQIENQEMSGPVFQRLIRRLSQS
# Sequence of Beta Lactamase (Q932Y6 whole entry): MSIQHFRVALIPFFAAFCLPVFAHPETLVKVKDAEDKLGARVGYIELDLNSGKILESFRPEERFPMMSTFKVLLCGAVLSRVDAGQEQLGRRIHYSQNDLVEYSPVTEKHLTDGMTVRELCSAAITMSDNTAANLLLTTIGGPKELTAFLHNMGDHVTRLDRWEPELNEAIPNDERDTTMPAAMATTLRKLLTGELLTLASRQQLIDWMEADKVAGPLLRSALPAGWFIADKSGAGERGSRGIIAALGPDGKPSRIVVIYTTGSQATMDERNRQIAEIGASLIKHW
# Sequence of Trypsin (P00761 whole entry): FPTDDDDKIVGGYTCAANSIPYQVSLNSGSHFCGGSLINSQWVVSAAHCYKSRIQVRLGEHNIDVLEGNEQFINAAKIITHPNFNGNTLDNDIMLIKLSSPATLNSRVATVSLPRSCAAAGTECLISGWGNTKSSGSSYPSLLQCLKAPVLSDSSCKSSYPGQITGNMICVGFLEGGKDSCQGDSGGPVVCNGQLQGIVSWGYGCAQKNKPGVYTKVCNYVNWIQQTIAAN
smiles,measurement,setting,value
Cc1nc(-c2ccc(Cl)cc2)sc1C1(C)CC(c2ccccc2Br)=NO1 (centres undefined),AC50,CAAX prenyl protease 2 [1],> 100 µM (inactive)
same,AC50,CAAX prenyl protease 2 [2],> 100 µM (inactive)
O=C1CCCN1CC(O)CS(=O)(=O)c1ccccc1 (centres undefined),AC50,Trypsin,1.72 µM (active)
same,AC50,CAAX prenyl protease 2 [1],17.7 µM (active)
same,AC50,Cytochrome P450 2C9,inconclusive
COC(=O)c1ccc(NCC(=O)c2ccccc2)cc1,EC50,Beta-galactosidase,> 40 µM (inactive)
same,IC50,[3],13.7 µM (active)
Cc1nc2c(ncn2-c2ccccc2)c(=O)n1NC(=O)CN1CCCC1,IC50,[4],> 67.5 µM (inactive)
same,IC50,HEK293,> 67.5 µM (inactive)
COCc1cc(O)nc2cc(NC(=O)C(F)(F)F)c(C)cc12,AC50,Escherichia coli,57.2 µM (active)
CC(C)(C=O)Cc1cc(C(C)(C)C)c(O)c(C(C)(C)C)c1,AC50,[5],35.5 µM (inconclusive)
Nc1nc(SCc2ccc([N+](=O)[O-])cc2)c2ncn([C@@H]3O[C@H](CO)[C@H](O)[C@H]3O)c2n1,AC50,[5],20 µM (inconclusive)
Cc1ccc(C(=O)COC(=O)CNC(=O)Cc2ccccc2)cc1[N+](=O)[O-],EC50,Beta-galactosidase,> 40 µM (inactive)
same,AC50,Cytochrome P450 1A2,25.1 µM (inconclusive)
same,IC50,[3],> 40 µM (not active)
Oc1ccccc1-c1cc(-c2ccc(F)cc2)[nH]n1,EC50,cells,> 67.6 µM (inactive)
same,IC50,[4],> 67.5 µM (inactive)
same,EC50,[6],> 67.6 µM (inactive)
same,IC50,HEK293,> 67.5 µM (inactive)
COc1ccc(C(=O)c2sc3nc(C)cc(-c4cccs4)c3c2N)cc1OC,EC50,[7],8.12 µM (active)
same,EC50,[8],21.2 µM (active)
same,IC50,CHO,50.2 µM (inactive)
same,EC50,[9],22.6 µM (active)
same,IC50,Beta Lactamase,8.85 µM (active)
Nc1nonc1-n1nnc(C(=O)N/N=C/c2cc(Br)ccc2O)c1CNc1ccccc1,EC50,[10],0.392 µM (active)
same,AC50,INS1,2.52 µM (active)
same,EC50,[11],43.8 µM (inconclusive)
same,EC50,[12],0.178 µM (active)
same,EC50,[13],5.03 µM (active)
same,EC50,[14],1.84 µM (active)
same,EC50,[15],22.6 µM (active)
same,EC50,[16],> 180 µM (inactive)
same,EC50,Streptococcus,3.23 µM (active)
same,EC50,Streptokinase A,> 150 µM (not active)
